IC50 data for 25 compounds are collected here from patent US11052092B2, “N-{[2-(piperidin-1-yl)phenyl](phenyl)methyl}-2-(3-oxo-3,4-dihydro-2H-1,4-benzoxazin-7-yl)acetamide derivatives and related compounds as ROR-gamma modulators for treating autoimmune diseases” (Genfit, priority 2017, dated 2021).

For this test, the target named is T1, human RORγt (Homo sapiens, UniProt P51449).
T1 construct: the full-length cDNA of human RORγt; expressed in transfected cells; host or cells: COS-7 (monkey kidney)
T1 sequence (P51449 1-497 isoform P51449-2): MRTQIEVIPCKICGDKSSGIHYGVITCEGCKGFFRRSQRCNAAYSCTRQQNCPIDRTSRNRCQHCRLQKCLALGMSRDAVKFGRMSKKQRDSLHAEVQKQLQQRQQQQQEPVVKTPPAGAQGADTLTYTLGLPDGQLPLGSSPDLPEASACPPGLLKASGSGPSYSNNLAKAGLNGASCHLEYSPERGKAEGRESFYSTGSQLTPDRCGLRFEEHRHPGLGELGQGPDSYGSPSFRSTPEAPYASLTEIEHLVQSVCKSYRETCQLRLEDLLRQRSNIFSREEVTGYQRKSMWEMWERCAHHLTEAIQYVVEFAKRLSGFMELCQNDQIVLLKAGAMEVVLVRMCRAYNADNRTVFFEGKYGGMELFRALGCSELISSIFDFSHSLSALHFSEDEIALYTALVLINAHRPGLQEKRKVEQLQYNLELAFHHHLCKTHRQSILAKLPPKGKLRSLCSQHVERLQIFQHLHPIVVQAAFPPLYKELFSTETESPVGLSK
The experiment in a line: RORE Luciferase/RORγt transactivation assay. The format is cell-based. Conditions: COS-7 cells transfected with human IL-17 promoter luciferase reporter and RORγt plasmid; 20 h with compound; read-out: IC50, RORγt activity inhibition. On the procedure: It is well known that RORγ binds to a conserved non-coding sequence (CNS) enhancer element in the IL-17 promoter.
Culture medium was changed every 2 days.
The 4.3 Kb human IL-17 promoter containing the RORγ-specific CNS enhancer element was PCR amplified from human genomic DNA and cloned into a pGL3-TKLuc2Cp reporter plasmid.
The luciferase reporter plasmid and the RORγt overexpression plasmid were transfected into COS-7 cell line using 4 μLJetPEI™/μg of DNA. Briefly, 150 ng of DNA (ration ½ between RORE-Tk Luc2Cp and cDNA RORγt or the empty vector for the negative control) was served to transfect adherent COS-7 cells in a […] culture flask, in complete medium (see cos-7 cell line culture).
Cells were then detached (using trypsin) and washed by centrifugation at 300 g for 10 minutes. Cell pellet was resuspended in serum free/phenol red free DMEM and seeded in 384 well plates at a density of 10000 cells/well and then incubated for 4 h at 37° C.
Compounds were dissolved in 100% DMSO to obtain 10 mM stock solutions. For each compound, test concentrations were diluted in serum free/phenol red free DMEM using the Genesis Freedom 200™ (TECAN) and added to the cells to obtain a 0.3% DMSO final concentration (in a final volume of 40 μL per well).
The luciferase activity was then measured with 40 μL/well steady-Glo Luciferase assay system (Promega, Madison, Wis.) and after incubation at room temperature for 30 minutes. The luminescence was estimated using the Ultra384 reader (TECAN). Data were collected and analyzed using GraphPad Prism software (GraphPad Software V5.02, San Diego Calif. USA). IC50 in μM and Emax in % were reported for each compound.
The term IC50 denotes the point on the concentration scale where inhibition reaches its midpoint. For the compound `CC(C)CC(NC(=O)Cc1ccc2c(c1)OCC(=O)N2)c1ccccc1N1CCCCC1` (stereo not shown) [Cpd. 6, N-{3-methyl-1-[2-(piperidin-1-yl)phenyl]butyl}-2-(3-oxo-3,4-dihydro-2H-1,4-benzoxazin-7-yl)acetamide], the IC50 fell in the range of 1 to 10 µM.

With `O=C1COc2ccc(CC(=O)NC(c3ccccc3)c3ccccc3N3CCCCC3)cc2N1` (stereo not shown) [Cpd. 13, 2-(3-oxo-3,4-dihydro-2H-1,4-benzoxazin-6-yl)-N-{phenyl[2-(piperidin-1-yl)phenyl]methyl}acetamide], the IC50 is 1 to 10 µM.

In the case of `O=C1Cc2cc(CC(=O)NC(c3ccccc3)c3ccccc3N3CCOCC3)ccc2N1` (stereo not shown) [Cpd. 17, N-{[2-(morpholin-4-yl)phenyl](phenyl)methyl}-2-(2-oxo-2,3-dihydro-1H-indol-5-yl)acetamide], the half-maximal inhibitory concentration (IC50) lay within 1 to 10 µM.

Regarding `Cc1ccc(C(NC(=O)Cc2ccc3c(c2)CC(=O)N3)c2ccc(C)o2)c(C)c1` (stereo not shown) [Cpd. 29, N-[(2,4-dimethylphenyl)(5-methylfuran-2-yl)methyl]-2-(2-oxo-2,3-dihydro-1H-indol-5-yl)acetamide], the IC50 fell in the range of 1 to 10 µM.

As to `Cc1ccc(C(NC(=O)Cc2ccc3c(c2)C(O)C(=O)N3)c2ccc(C)o2)c(N2CCCCC2)c1` (stereo not shown) [Cpd. 46, 2-(3-hydroxy-2-oxo-2,3-dihydro-1H-indol-5-yl)-N-{[4-methyl-2-(piperidin-1-yl)phenyl](5-methylfuran-2-yl)methyl}acetamide], the IC50 lay within 0.1 to 1 µM.

For `Cc1ccc(C(NC(=O)Cc2ccc3c(c2)CCC3=O)c2ccc(C)o2)c(N2CCCCC2)c1` (stereo not shown) [Cpd. 51, N-{[4-methyl-2-(piperidin-1-yl)phenyl](5-methylfuran-2-yl)methyl}-2-(1-oxo-2,3-dihydro-1H-inden-5-yl)acetamide], the IC50 is 0.1 to 1 µM.

Consider `CC(C)=C1C(=O)Nc2ccc(CC(=O)NC(c3ccc(C)o3)c3ccc(C)cc3N3CCCCC3)cc21` (stereo not shown) [Cpd. 55, N-{[4-methyl-2-(piperidin-1-yl)phenyl](5-methylfuran-2-yl)methyl}-2-[2-oxo-3-(propan-2-ylidene)-2,3-dihydro-1H-indol-5-yl]acetamide], for which the IC50 is 0.1 to 1 µM.

Consider `Cc1ccc(C(NC(=O)C2(c3ccc4c(c3)CN(S(C)(=O)=O)C4)CC2)c2ccc(Cl)o2)c(C)c1` (stereo not shown) [Cpd. 56, N-[(5-chlorofuran-2-yl)(2,4-dimethylphenyl)methyl]-1-(2-methanesulfonyl-2,3-dihydro-1H-isoindol-5-yl)cyclopropane-1-carboxamide], for which the IC50 fell in the range of 0.01 to 0.1 µM.

For the compound `Cc1ccc(C(NC(=O)C2(c3ccc4c(c3)CN(S(C)(=O)=O)C4)CC2)c2ccc(C)o2)c(C)c1` (stereo not shown) [Cpd. 65, N-[(2,4-dimethylphenyl)(5-methylfuran-2-yl)methyl]-1-(2-methanesulfonyl-2,3-dihydro-1H-isoindol-5-yl)cyclopropane-1-carboxamide], the IC50 lay in the range of 0.01 to 0.1 µM.

As to `Cc1ccc(C(NC(=O)C2(c3ccc4[nH]cc(CCO)c4c3)CC2)c2ccc(C)o2)c(N2CCCCC2)c1` (stereo not shown) [Cpd. 66, 1-[3-(2-hydroxyethyl)-1H-indol-5-yl]-N-{[4-methyl-2-(piperidin-1-yl)phenyl](5-methylfuran-2-yl)methyl}cyclopropane-1-carboxamide], the IC50 fell in the range of 0.01 to 0.1 µM.

With `Cc1ccc(C(NC(=O)Cc2ccc3c(c2)C(=O)CC3)c2ccc(C)o2)c(N2CCCCC2)c1` (stereo not shown) [Cpd. 67, N-{[4-methyl-2-(piperidin-1-yl)phenyl](5-methylfuran-2-yl)methyl}-2-(3-oxo-2,3-dihydro-1H-inden-5-yl)acetamide], the IC50 fell in the range of 0.1 to 1 µM.

For the compound `Cc1ccc(C(NC(=O)C2(c3ccc4c(ccn4CCO)c3)CC2)c2ccc(C)o2)c(C)c1` (stereo not shown) [Cpd. 69, N-[(2,4-dimethylphenyl)(5-methylfuran-2-yl)methyl]-1-[1-(2-hydroxyethyl)-1H-indol-5-yl]cyclopropane-1-carboxamide], the IC50 was 0.01 to 0.1 µM.

`Cc1ccc(C(NC(=O)C2(c3ccc4c(c3)CS(=O)(=O)N4C)CC2)c2ccc(C)o2)c(C)c1` (stereo not shown) [Cpd. 70, N-[(2,4-dimethylphenyl)(5-methylfuran-2-yl)methyl]-1-(1-methyl-2,2-dioxo-1,3-dihydro-2,1-benzothiazol-5-yl)cyclopropane-1-carboxamide]: the IC50 lay in the range of 0.01 to 0.1 µM.

Consider `Cc1ccc(C(NC(=O)Cc2ccc3c(c2)C(O)CC3)c2ccc(C)o2)c(N2CCCCC2)c1` (stereo not shown) [Cpd. 85, 2-(3-hydroxy-2,3-dihydro-1H-inden-5-yl)-N-{[4-methyl-2-(piperidin-1-yl)phenyl](5-methylfuran-2-yl)methyl}acetamide], for which the IC50 was in the range of 0.01 to 0.1 µM.

Take `Cc1ccc(C(NC(=O)C2(c3ccc4c(c3)CCN4C(=O)C3CC3)CC2)c2ccc(C)o2)c(C)c1` (stereo not shown) [Cpd. 95, 1-(1-cyclopropanecarbonyl-2,3-dihydro-1H-indol-5-yl)-N-[(2,4-dimethylphenyl)(5-methylfuran-2-yl)methyl]cyclopropane-1-carboxamide]: the IC50 is 0.01 to 0.1 µM.

Regarding `Cc1ccc(C(NC(=O)Cc2ccc3c(ccn3CCC(=O)OC(C)(C)C)c2)c2ccc(C)o2)c(N2CCCCC2)c1` (stereo not shown) [Cpd. 96, tert-butyl 3-{5-[({[4-methyl-2-(piperidin-1-yl)phenyl](5-methylfuran-2-yl)methyl}carbamoyl)methyl]-1H-indol-1-yl}propanoate], the IC50 is 0.1 to 1 µM.

In the case of `COc1ccc(C(NC(=O)Cc2ccc3c(ccn3CCC(=O)OC(C)(C)C)c2)c2ccc(C)o2)c(N2CCCCCC2)c1` (stereo not shown) [Cpd. 110, tert-butyl 3-{5-[({[2-(azepan-1-yl)-4-methoxyphenyl](5-methylfuran-2-yl)methyl}carbamoyl)methyl]-1H-indol-1-yl}propanoate], the IC50 was in the range of 0.1 to 1 µM.

Regarding `Cc1ccc(C(NC(=O)Cc2ccc3c(ccn3CC3CCOCC3)c2)c2ccc(C)o2)c(N2CCCCC2)c1` (stereo not shown) [Cpd. 113, N-{[4-methyl-2-(piperidin-1-yl)phenyl](5-methylfuran-2-yl)methyl}-2-[1-(oxan-4-ylmethyl)-1H-indol-5-yl]acetamide], the IC50 is 0.01 to 0.1 µM.

For the compound `Cc1ccc(C(NC(=O)Cc2ccc3c(c2)CCN3C(=O)C2CC2)c2ccc(C)o2)c(N2CCCCC2)c1` (stereo not shown) [Cpd. 123, 2-(1-cyclopropanecarbonyl-2,3-dihydro-1H-indol-5-yl)-N-{[4-methyl-2-(piperidin-1-yl)phenyl](5-methylfuran-2-yl)methyl}acetamide], the IC50 is below 0.01 µM.

As for `Cc1ccc(C(NC(=O)C2(c3ccc4c(c3)OCS(=O)(=O)N4)CC2)c2ccc(C)o2)c(Br)c1` (stereo not shown) [Cpd. 131, N-[(2-bromo-4-methylphenyl)(5-methylfuran-2-yl)methyl]-1-(2,2-dioxo-1,3-dihydro-4,2,1-benzoxathiazin-6-yl)cyclopropane-1-carboxamide], the IC50 lay in the range of 0.01 to 0.1 µM.

Turning to `CCN1c2ccc(C3(C(=O)NC(c4ccc(C)o4)c4ccc(C)cc4C)CC3)cc2CS1(=O)=O` (stereo not shown) [Cpd. 132, N-[(2,4-dimethylphenyl)(5-methylfuran-2-yl)methyl]-1-(1-ethyl-2,2-dioxo-1,3-dihydro-2,1-benzothiazol-5-yl)cyclopropane-1-carboxamide], the IC50 was 0.01 to 0.1 µM.

With `Cc1ccc(C(NC(=O)C2(c3ccc4c(c3)CS(=O)(=O)N4C)CC2)c2ccc(C)o2)c(N(C)C)c1` (stereo not shown) [Cpd. 133, N-{[2-(dimethylamino)-4-methylphenyl](5-methylfuran-2-yl)methyl}-1-(1-methyl-2,2-dioxo-1,3-dihydro-2,1-benzothiazol-5-yl)cyclopropane-1-carboxamide], the IC50 was 0.01 to 0.1 µM.

For the compound `Cc1ccc(C(NC(=O)C2(c3ccc4c(c3)OCC(=O)N4)CC2)c2ccc(Cl)o2)c(C)c1` (stereo not shown) [Cpd. 134, N-[(5-chlorofuran-2-yl)(2,4-dimethylphenyl)methyl]-1-(3-oxo-3,4-dihydro-2H-1,4-benzoxazin-7-yl)cyclopropane-1-carboxamide], the IC50 is below 0.01 µM.

As for `Cc1ccc(C(NC(=O)C2(c3ccc4c(c3)OCC(=O)N4)CC2)c2ccc(C)o2)c(Br)c1` (stereo not shown) [Cpd. 135, N-[(2-bromo-4-methylphenyl)(5-methylfuran-2-yl)methyl]-1-(3-oxo-3,4-dihydro-2H-1,4-benzoxazin-7-yl)cyclopropane-1-carboxamide], the IC50 was below 0.01 µM.

With `Cc1ccc(C(NC(=O)C2(c3ccc4c(c3)OCC(=O)N4)CC2)c2cccc(C)n2)c(C)c1` (stereo not shown) [Cpd. 136, N-[(2,4-dimethylphenyl)(6-methylpyridin-2-yl)methyl]-1-(3-oxo-3,4-dihydro-2H-1,4-benzoxazin-7-yl)cyclopropane-1-carboxamide], the IC50 lay in the range of 0.01 to 0.1 µM.
